{
  "source": "patent US5643870A",
  "about": "“O-acylated cyclosporins” (Sandoz Ltd., priority 1992, dated 1997)",
  "key": {"[1]": {"test_system": "plaque forming, i.e. antibody producing, cells (lymphocytes from the spleen of OFI mice co-cultured with sheep erythrocytes)", "assay_type": "cell-based", "conditions": "3 days co-culture with sheep erythrocytes", "method": "Ca. 10^7 lymphocytes from the spleen of OFI, female mice are co-cultured with ca. 3×10^7 sheep erythrocytes for 3 days. Test substance is added to the incubation medium in varying concentrations. Lymphocytes are harvested and plated onto agar with fresh sheep erythrocytes as antigen. Sensitised lymphocytes secrete antibody that coats the erythrocytes, which lyse to form a plaque in the presence of complement. Activity is assessed by reduction in the number of plaque forming, i.e. antibody producing, cells. Cyclosporins in accordance with the present invention reduce the numbers of plaque forming cells at concentrations of the order of from 0.03 to 0.05 μg/ml."}, "[2]": {"test_system": "lymphocytes from the spleen of Balb/c mice incubated with lymphocytes from the spleen of CBA mice", "protocol": "0.5×10^6 lymphocytes from the spleen of female (8-10 weeks) Balb/c mice are incubated for 5 days in 0.2 ml cell growth medium with ca. 0.5×10^6 lymphocytes from the spleen of female (8-10 weeks) CBA mice. Test substance is added to the medium at various concentrations. Activity is assessed by ability to suppress proliferation associated DNA synthesis as determined by incorporation of radiolabelled thymidine."}},
  "data": [
    {"smiles": "CC[C@@H]1NC(=O)[C@H]([C@H](O)[C@H](C)C/C=C/COC(=O)OC)N(C)C(=O)[C@H](C(C)C)N(C)C(=O)[C@H](CC(C)C)N(C)C(=O)[C@H](CC(C)C)N(C)C(=O)[C@@H](C)NC(=O)[C@H](C)NC(=O)[C@H](CC(C)C)N(C)C(=O)[C@H](C(C)C)NC(=O)[C@H](CC(C)C)N(C)C(=O)CN(C)C1=O", "note": "[Example 1, [(8'-Methoxycarbonyloxy)MeBmt]^1 -Ciclosporin]", "values": [
      {"measurement": "IC50, test 1.2 Mishell-Dutton test (number of plaque forming cells)", "setting": "[1]", "value": 0.043, "unit": "µg/mL"},
      {"measurement": "IC50, test 1.1 murine mixed lymphocyte reaction (thymidine incorporation)", "setting": "[2]", "value": 0.015, "unit": "µg/mL"}
    ]}
  ]
}
